The nature of data set [1]: Inhibition of P-gp (unknown origin) expressed in human LCC6MDR cells assessed as reversal of paclitaxel resistance after 5 days by MTS/PMS assay.
The nature of data set [2]: Inhibition of BCRP (unknown origin) transfected in HEK293/R2 cells assessed as reversal of topotecan resistance after 5 days by MTS/PMS assay.
The nature of data set [3]: Inhibition of BCRP in human MCF7/MX100 cells assessed as reversal of topotecan resistance after 5 days by MTS/PMS assay.

EC50 data for 41 molecules are collected here from BindingDB's records for doi:10.1021/acs.jmedchem.9b00963 (Hong Kong Polytechnic University, 2019).

Where only a bound is given, the exact number is not on record here.

In the case of `O=c1cc(-c2ccc(OCCOCCn3cc(CCCOc4ccc(-c5cc(=O)c6ccc(F)cc6o5)cc4)nn3)cc2)oc2ccccc12`, the EC50 (in general, the concentration needed to bring the measured effect to its halfway point) was found to be 155 nM in data set [1] and 7.2 nM in data set [2].
As to `COC(=O)c1cccc(COc2c(-c3ccc(OCCOCCn4cc(CN(Cc5ccncc5)Cc5cn(CCOCCOc6ccc(-c7oc8ccccc8c(=O)c7OCc7cccc(C(=O)OC)c7)cc6)nn5)nn4)cc3)oc3ccccc3c2=O)c1`, the figures for the EC50 in data set [1], in data set [2] and in data set [3] were above 1000 nM, 49 nM and 25 nM, respectively.
As for `O=c1cc(-c2ccccc2)oc2cc(OCCOCCOCCn3cc(CN(Cc4ccccc4)Cc4cn(CCOCCOCCOc5ccc6c(=O)cc(-c7ccccc7)oc6c5)nn4)nn3)ccc12`, the EC50 is above 1000 nM in data set [1], 83 nM in data set [2] and 250 nM in data set [3].
Turning to `O=c1cc(-c2ccc(OCCOCCOCCn3cc(CN(CCOc4ccc5c(=O)cc(-c6ccccc6)oc5c4)Cc4ccccc4)nn3)cc2)oc2ccccc12`, the EC50 in data set [1] amounted to 275 nM; in data set [2], 37 nM; in data set [3], 17 nM.
Turning to `O=c1cc(-c2ccccc2)oc2cc(OCCCc3cn(CCOCCOCCOc4ccc5c(=O)cc(-c6ccccc6)oc5c4)nn3)ccc12`, the EC50 was 515 nM in data set [1], 57 nM in data set [2] and 177 nM in data set [3].
Regarding `COC(=O)c1cccc(COc2c(-c3ccc(OCCOCCn4cc(CN5CCN(Cc6cn(CCOCCOc7ccc(-c8oc9ccccc9c(=O)c8OCc8cccc(C(=O)OC)c8)cc7)nn6)CC5)nn4)cc3)oc3ccccc3c2=O)c1`, the EC50 in data set [1] amounted to 683 nM; in data set [2], 18 nM; in data set [3], 19 nM.
In the case of `COC(=O)c1cccc(COc2c(-c3ccc(OCCOCCOCCn4cc(COCCOc5ccc6c(=O)cc(-c7ccccc7)oc6c5)nn4)cc3)oc3ccccc3c2=O)c1`, in data set [1], the EC50 was determined as 313 nM.
In the case of `Cc1ccc2oc(-c3ccc(OCCOCCOCCn4cc(CN(CCOc5ccc6c(=O)cc(-c7ccccc7)oc6c5)Cc5ccccc5)nn4)cc3)cc(=O)c2c1`, the EC50 in data set [1] was 210 nM; in data set [2] it was 55 nM; in data set [3], 16 nM.
Regarding `COC(=O)c1cccc(COc2c(-c3ccc(OCCOCCOCCn4cc(CCCCOc5ccc6c(=O)cc(-c7ccccc7)oc6c5)nn4)cc3)oc3ccccc3c2=O)c1`, the EC50 in data set [1] amounted to 285 nM.
On to `O=c1cc(-c2ccccc2)oc2cc(OCCCc3cn(CCOCCOc4ccc5c(=O)cc(-c6ccccc6)oc5c4)nn3)ccc12`, for which the EC50 in data set [1] was determined as 490 nM; in data set [2], 42 nM; in data set [3] it was 22 nM.
As to `O=c1cc(-c2ccc(OCCOCCOCCn3cc(COCCOc4ccc5c(=O)cc(-c6ccccc6)oc5c4)nn3)cc2)oc2ccccc12`, the EC50 in data set [1] came to 963 nM; in data set [2], 303 nM; in data set [3] it was 340 nM.
For the molecule `O=c1cc(-c2ccc(OCCOCCn3cc(CN(CCOc4ccc5c(=O)cc(-c6ccccc6)oc5c4)Cc4ccccc4)nn3)cc2)oc2ccccc12`, the results for the EC50 in data set [1], in data set [2] and in data set [3] were 630 nM, 86 nM and 205 nM, respectively.
As to `O=c1cc(-c2ccccc2)oc2cc(OCCCCc3cn(CCOCCOCCOc4ccc5c(=O)cc(-c6ccccc6)oc5c4)nn3)ccc12`, the EC50 worked out at 288 nM in data set [1], 47 nM in data set [2] and 94 nM in data set [3].
As to `COC(=O)c1cccc(COc2c(-c3ccc(OCCOCCOCCn4cc(-c5ccc(-c6cn(CCOCCOCCOc7ccc(-c8oc9ccccc9c(=O)c8OCc8cccc(C(=O)OC)c8)cc7)nn6)cc5)nn4)cc3)oc3ccccc3c2=O)c1`, the EC50 in data set [1] was above 1000 nM; in data set [2], 2.4 nM; in data set [3], 14 nM.
Turning to `Cc1ccc2oc(-c3ccc(OCCOCCOCCn4cc(CCCOc5ccc6c(=O)cc(-c7ccccc7)oc6c5)nn4)cc3)cc(=O)c2c1`, the concentration for a half-maximal effect (EC50) in data set [1] came out at 350 nM; in data set [2], 35 nM; in data set [3] it was 185 nM.
As to `O=c1cc(-c2ccccc2)oc2cc(OCCCCc3cn(CCOCCOc4ccc(-c5cc(=O)c6cc(F)ccc6o5)cc4)nn3)ccc12`, the results for the EC50 in data set [1], in data set [2] and in data set [3] were 264 nM, 43 nM and 18 nM, respectively.
For `COC(=O)c1cccc(COc2c(-c3ccc(OCCOCCn4cc(COCCOc5ccc6c(=O)cc(-c7ccccc7)oc6c5)nn4)cc3)oc3ccccc3c2=O)c1`, the EC50 in data set [1] amounted to 437 nM; in data set [3] it was 18 nM.
On to `O=c1c(OCc2ccccc2)c(-c2ccc(OCCOCCOCCn3cc(CN(Cc4ccccc4)Cc4cn(CCOCCOCCOc5ccc(-c6oc7ccccc7c(=O)c6OCc6ccccc6)cc5)nn4)nn3)cc2)oc2ccccc12`, for which the values for the EC50 in data set [1], in data set [2] and in data set [3] were 560 nM, 36 nM and 26 nM, respectively.
Turning to `Cc1ccc2oc(-c3ccc(OCCCCc4cn(CCOCCOCCOc5ccc(-c6cc(=O)c7cc(C)ccc7o6)cc5)nn4)cc3)cc(=O)c2c1`, the figures for the concentration giving a half-maximal response (EC50) in data set [1], in data set [2] and in data set [3] were 526 nM, 54 nM and 230 nM, respectively.
In the case of `Cc1ccc2oc(-c3ccc(OCCCCc4cn(CCOCCOc5ccc(-c6cc(=O)c7cc(F)ccc7o6)cc5)nn4)cc3)cc(=O)c2c1`, the figures for the EC50 in data set [2] and in data set [3] were 15 nM and 64 nM, respectively.
For the molecule `O=c1cc(-c2ccc(OCCCc3cn(CCOCCOCCOc4ccc5c(=O)cc(-c6ccccc6)oc5c4)nn3)cc2)oc2cc(F)ccc12`, the EC50 in data set [1] turned out to be 89 nM; in data set [2] it was 28 nM; in data set [3], 27 nM.
Taken in the same sequence, the figures for `O=c1cc(-c2ccccc2)oc2cc(OCCOCCOCCn3cc(COCCOc4ccc5c(=O)cc(-c6ccccc6)oc5c4)nn3)ccc12` were 928 nM, 145 nM and 59 nM.
`O=c1cc(-c2ccccc2)oc2cc(OCCOCc3cn(CCOCCOc4ccc(-c5oc6ccccc6c(=O)c5OCc5ccccc5)cc4)nn3)ccc12`: the EC50 in data set [1] is 345 nM.
Turning to `Cc1ccc2oc(-c3ccc(OCCCCc4cn(CCOCCOCCOc5ccc6c(=O)cc(-c7ccccc7)oc6c5)nn4)cc3)cc(=O)c2c1`, in data set [3], the EC50 worked out at 151 nM.
As for `COC(=O)c1cccc(COc2c(-c3ccc(OCCOCCn4cc(-c5ccc(-c6cn(CCOCCOc7ccc(-c8oc9ccccc9c(=O)c8OCc8cccc(C(=O)OC)c8)cc7)nn6)cc5)nn4)cc3)oc3ccccc3c2=O)c1`, the values for the EC50 in data set [1], in data set [2] and in data set [3] were above 1000 nM, 14 nM and 27 nM, respectively.
In the case of `O=c1cc(-c2ccccc2)oc2cc(OCCOCCn3cc(CN(Cc4ccccc4)Cc4cn(CCOCCOc5ccc6c(=O)cc(-c7ccccc7)oc6c5)nn4)nn3)ccc12`, the EC50 in data set [1] was above 1000 nM; in data set [2], 153 nM; in data set [3], 278 nM.
Take `Cc1ccc2oc(-c3ccc(OCCOCCOCCn4cc(CN(Cc5ccccc5)Cc5cn(CCOCCOCCOc6ccc(-c7cc(=O)c8cc(C)ccc8o7)cc6)nn5)nn4)cc3)cc(=O)c2c1`: the EC50 amounted to 763 nM in data set [1] and 46 nM in data set [3].
With `O=c1cc(-c2ccc(OCCCc3cn(CCOCCOCCOc4ccc(-c5oc6ccccc6c(=O)c5OCc5ccccc5)cc4)nn3)cc2)oc2cc(F)ccc12`, the concentration giving a half-maximal response (EC50) was determined as 344 nM in data set [1], 25 nM in data set [2] and 47 nM in data set [3].
For the molecule `O=c1cc(-c2ccccc2)oc2cc(OCCCCc3cn(CCOCCOc4ccc5c(=O)cc(-c6ccccc6)oc5c4)nn3)ccc12`, the results for the EC50 in data set [1], in data set [2] and in data set [3] were 365 nM, 34 nM and 39 nM, respectively.
Consider `O=c1cc(-c2ccccc2)oc2cc(OCCCc3cn(CCOCCOCCOc4ccc(-c5cc(=O)c6cc(F)ccc6o5)cc4)nn3)ccc12`, for which the EC50 turned out to be 328 nM in data set [1], 38 nM in data set [2] and 98 nM in data set [3].
Take `Cc1ccc2oc(-c3ccc(OCCCCc4cn(CCOCCOCCOc5ccc(-c6cc(=O)c7ccccc7o6)cc5)nn4)cc3)cc(=O)c2c1`: the concentration for a half-maximal effect (EC50) was above 1000 nM in data set [1], 285 nM in data set [2] and 160 nM in data set [3].
Take `O=c1cc(-c2ccccc2)oc2cc(OCCOCc3cn(CCOCCOc4ccc(-c5cc(=O)c6cc(F)ccc6o5)cc4)nn3)ccc12`: the EC50 was above 1000 nM in data set [1], 285 nM in data set [2] and 195 nM in data set [3].
For `O=c1cc(-c2ccccc2)oc2cc(OCCOCCn3cc(COCCOc4ccc5c(=O)cc(-c6ccccc6)oc5c4)nn3)ccc12`, the concentration giving a half-maximal response (EC50) in data set [1] was above 1000 nM; in data set [2] it was 195 nM; in data set [3], 308 nM.
Taken in the same sequence, the figures for `Cc1ccc2oc(-c3ccc(OCCCCc4cn(CCOCCOc5ccc(-c6oc7ccccc7c(=O)c6OCc6ccccc6)cc5)nn4)cc3)cc(=O)c2c1` were 605 nM, 33 nM and 24 nM.
The matching figures for `COC(=O)c1cccc(COc2c(-c3ccc(OCCOCCn4cc(CN(C)CCN(C)Cc5cn(CCOCCOc6ccc(-c7oc8ccccc8c(=O)c7OCc7cccc(C(=O)OC)c7)cc6)nn5)nn4)cc3)oc3ccccc3c2=O)c1`: above 1000 nM, 133 nM and 84 nM.
The matching figures for `O=c1cc(-c2ccc(OCCCc3cn(CCOCCOc4ccc5c(=O)cc(-c6ccccc6)oc5c4)nn3)cc2)oc2cc(F)ccc12`: 69 nM, 6.4 nM and 7.9 nM.
Turning to `COC(=O)c1cccc(COc2c(-c3ccc(OCCOCCn4cc(CCCCOc5ccc(-c6cc(=O)c7cc(C)ccc7o6)cc5)nn4)cc3)oc3ccccc3c2=O)c1`, in data set [1], the concentration giving a half-maximal response (EC50) amounted to 430 nM.
As to `COC(=O)c1cccc(COc2c(-c3ccc(OCCOCCOCCn4cc(CCCCOc5ccc(-c6cc(=O)c7cc(C)ccc7o6)cc5)nn4)cc3)oc3ccccc3c2=O)c1`, in data set [1], the EC50 amounted to 420 nM.
The same measure, in the same setting: in the case of `O=c1cc(-c2ccc(OCCCc3cn(CCOCCOc4ccc(-c5cc(=O)c6ccccc6o5)cc4)nn3)cc2)oc2ccccc12` it was 201 nM.
As for `COC(=O)c1cccc(COc2c(-c3ccc(OCCOCCn4cc(CCCCOc5ccc6c(=O)cc(-c7ccccc7)oc6c5)nn4)cc3)oc3ccccc3c2=O)c1`, the EC50 in data set [1] is 325 nM; in data set [2], 5.2 nM.
`O=c1cc(-c2ccc(OCCOCCn3cc(CN(Cc4ccccc4)Cc4cn(CCOCCOc5ccc(-c6cc(=O)c7ccccc7o6)cc5)nn4)nn3)cc2)oc2ccccc12`: the values for the concentration for a half-maximal effect (EC50) in data set [1] and in data set [3] were 670 nM and 205 nM, respectively.
